Assay: xn = mol fraction of the nth substance listed
Settings: 100 kPa, Liquid; for viscosity: Capillary tube (Ostwald / Ubbelohde) method; for mass density: Vibrating tube method

CCCCCCCCCC(=O)OCC [ethyl decanoate] + CCCCCCCCCCCCCCCC
Settings	mass density [kg/m3]	viscosity [mPa·s]
298.15 K, x2 = 0	860.05	2.115
298.15 K, x2 = 0.1	848.4	2.169
298.15 K, x2 = 0.2	837.44	2.23
298.15 K, x2 = 0.3	827.17	2.298
298.15 K, x2 = 0.4	817.5	2.374
298.15 K, x2 = 0.5	808.41	2.46
298.15 K, x2 = 0.6	799.81	2.556
298.15 K, x2 = 0.7	791.69	2.664
298.15 K, x2 = 0.8	783.98	2.785
298.15 K, x2 = 0.9	776.78	2.923
303.15 K, x2 = 0	855.99	1.919
303.15 K, x2 = 0.1	844.41	1.966
303.15 K, x2 = 0.2	833.53	2.019
303.15 K, x2 = 0.3	823.32	2.079
303.15 K, x2 = 0.4	813.71	2.144
303.15 K, x2 = 0.5	804.69	2.219
303.15 K, x2 = 0.6	796.15	2.303
303.15 K, x2 = 0.7	788.08	2.396
303.15 K, x2 = 0.8	780.42	2.501
303.15 K, x2 = 0.9	773.27	2.618
308.15 K, x2 = 0	851.92	1.75
308.15 K, x2 = 0.1	840.42	1.79
308.15 K, x2 = 0.2	829.61	1.837
308.15 K, x2 = 0.3	819.48	1.89
308.15 K, x2 = 0.4	809.93	1.948
308.15 K, x2 = 0.5	800.96	2.013
308.15 K, x2 = 0.6	792.49	2.086
308.15 K, x2 = 0.7	784.47	2.167
308.15 K, x2 = 0.8	776.87	2.257
308.15 K, x2 = 0.9	769.76	2.358
313.15 K, x2 = 0	847.85	1.603
313.15 K, x2 = 0.1	836.43	1.639
313.15 K, x2 = 0.2	825.69	1.68
313.15 K, x2 = 0.3	815.62	1.726
313.15 K, x2 = 0.4	806.15	1.777
313.15 K, x2 = 0.5	797.24	1.835
313.15 K, x2 = 0.6	788.82	1.899
313.15 K, x2 = 0.7	780.86	1.97
313.15 K, x2 = 0.8	773.31	2.049
313.15 K, x2 = 0.9	766.26	2.137
318.15 K, x2 = 0	843.77	1.474
318.15 K, x2 = 0.1	832.43	1.506
318.15 K, x2 = 0.2	821.76	1.544
318.15 K, x2 = 0.3	811.77	1.585
318.15 K, x2 = 0.4	802.35	1.63
318.15 K, x2 = 0.5	793.51	1.68
318.15 K, x2 = 0.6	785.15	1.737
318.15 K, x2 = 0.7	777.25	1.799
318.15 K, x2 = 0.8	769.76	1.869
318.15 K, x2 = 0.9	762.74	1.947
323.15 K, x2 = 0	839.69	1.362
323.15 K, x2 = 0.1	828.42	1.39
323.15 K, x2 = 0.2	817.83	1.423
323.15 K, x2 = 0.3	807.9	1.46
323.15 K, x2 = 0.4	798.56	1.501
323.15 K, x2 = 0.5	789.78	1.546
323.15 K, x2 = 0.6	781.48	1.595
323.15 K, x2 = 0.7	773.64	1.651
323.15 K, x2 = 0.8	766.2	1.712
323.15 K, x2 = 0.9	759.24	1.779

CCCCCCCC(=O)OCC [ethyl octanoate] + CCCCCCCCCCCCCCCC
Settings	mass density [kg/m3]	viscosity [mPa·s]
298.15 K, x2 = 0	862.64	1.428
298.15 K, x2 = 0.1	848.72	1.539
298.15 K, x2 = 0.2	836.2	1.651
298.15 K, x2 = 0.3	824.94	1.776
298.15 K, x2 = 0.4	814.77	1.916
298.15 K, x2 = 0.4999	805.52	2.065
298.15 K, x2 = 0.6	797.09	2.229
298.15 K, x2 = 0.7	789.38	2.408
298.15 K, x2 = 0.8	782.33	2.608
298.15 K, x2 = 0.9	775.88	2.84
303.15 K, x2 = 0	858.34	1.313
303.15 K, x2 = 0.1	844.55	1.407
303.15 K, x2 = 0.2	832.14	1.513
303.15 K, x2 = 0.3	820.97	1.623
303.15 K, x2 = 0.4	810.9	1.744
303.15 K, x2 = 0.4999	801.74	1.875
303.15 K, x2 = 0.6	793.39	2.019
303.15 K, x2 = 0.7	785.75	2.175
303.15 K, x2 = 0.8	778.76	2.348
303.15 K, x2 = 0.9	772.36	2.543
308.15 K, x2 = 0	854.04	1.211
308.15 K, x2 = 0.1	840.37	1.296
308.15 K, x2 = 0.2	828.07	1.387
308.15 K, x2 = 0.3	817.01	1.49
308.15 K, x2 = 0.4	807.03	1.596
308.15 K, x2 = 0.4999	797.95	1.712
308.15 K, x2 = 0.6	789.68	1.837
308.15 K, x2 = 0.7	782.11	1.974
308.15 K, x2 = 0.8	775.18	2.124
308.15 K, x2 = 0.9	768.84	2.291
313.15 K, x2 = 0	849.72	1.121
313.15 K, x2 = 0.1	836.18	1.197
313.15 K, x2 = 0.2	824	1.279
313.15 K, x2 = 0.3	813.04	1.371
313.15 K, x2 = 0.4	803.16	1.467
313.15 K, x2 = 0.4999	794.16	1.57
313.15 K, x2 = 0.6	785.97	1.68
313.15 K, x2 = 0.7	778.47	1.801
313.15 K, x2 = 0.8	771.61	1.933
313.15 K, x2 = 0.9	765.33	2.083
318.15 K, x2 = 0	845.39	1.042
318.15 K, x2 = 0.1	831.98	1.11
318.15 K, x2 = 0.2	819.92	1.185
318.15 K, x2 = 0.3	809.06	1.267
318.15 K, x2 = 0.4	799.27	1.351
318.15 K, x2 = 0.4999	790.37	1.444
318.15 K, x2 = 0.6	782.25	1.543
318.15 K, x2 = 0.7	774.83	1.65
318.15 K, x2 = 0.8	768.04	1.766
318.15 K, x2 = 0.9	761.81	1.897
323.15 K, x2 = 0	841.06	0.971
323.15 K, x2 = 0.1	827.77	1.034
323.15 K, x2 = 0.2	815.83	1.101
323.15 K, x2 = 0.3	805.08	1.172
323.15 K, x2 = 0.4	795.39	1.251
323.15 K, x2 = 0.4999	786.56	1.334
323.15 K, x2 = 0.6	778.53	1.422
323.15 K, x2 = 0.7	771.18	1.517
323.15 K, x2 = 0.8	764.46	1.62
323.15 K, x2 = 0.9	758.3	1.736

CCCCCCCCCCCC(=O)OCC [ethyl dodecanoate] + CCCCCCCCCCCCCCCC
Settings	mass density [kg/m3]	viscosity [mPa·s]
298.15 K, x2 = 0	858.19	3.015
298.15 K, x2 = 0.1	848.2	2.977
298.15 K, x2 = 0.2	838.49	2.954
298.15 K, x2 = 0.3	829.03	2.935
298.15 K, x2 = 0.4	819.83	2.925
298.15 K, x2 = 0.5	810.88	2.923
298.15 K, x2 = 0.6	802.18	2.933
298.15 K, x2 = 0.7	793.76	2.952
298.15 K, x2 = 0.7999	785.59	2.98
298.15 K, x2 = 0.9	777.65	3.024
303.15 K, x2 = 0	854.3	2.704
303.15 K, x2 = 0.1	844.34	2.673
303.15 K, x2 = 0.2	834.69	2.65
303.15 K, x2 = 0.3	825.27	2.632
303.15 K, x2 = 0.4	816.11	2.624
303.15 K, x2 = 0.5	807.21	2.623
303.15 K, x2 = 0.6	798.55	2.629
303.15 K, x2 = 0.7	790.18	2.645
303.15 K, x2 = 0.7999	782.04	2.668
303.15 K, x2 = 0.9	774.14	2.706
308.15 K, x2 = 0	850.4	2.439
308.15 K, x2 = 0.1	840.49	2.412
308.15 K, x2 = 0.2	830.88	2.392
308.15 K, x2 = 0.3	821.51	2.377
308.15 K, x2 = 0.4	812.4	2.368
308.15 K, x2 = 0.5	803.54	2.367
308.15 K, x2 = 0.6	794.93	2.372
308.15 K, x2 = 0.7	786.59	2.384
308.15 K, x2 = 0.7999	778.5	2.403
308.15 K, x2 = 0.9	770.64	2.433
313.15 K, x2 = 0	846.5	2.213
313.15 K, x2 = 0.1	836.63	2.188
313.15 K, x2 = 0.2	827.07	2.169
313.15 K, x2 = 0.3	817.75	2.155
313.15 K, x2 = 0.4	808.68	2.149
313.15 K, x2 = 0.5	799.87	2.146
313.15 K, x2 = 0.6	791.3	2.15
313.15 K, x2 = 0.7	783.01	2.16
313.15 K, x2 = 0.7999	774.96	2.179
313.15 K, x2 = 0.9	767.14	2.203
318.15 K, x2 = 0	842.6	2.016
318.15 K, x2 = 0.1	832.77	1.996
318.15 K, x2 = 0.2	823.26	1.978
318.15 K, x2 = 0.3	813.99	1.966
318.15 K, x2 = 0.4	804.97	1.959
318.15 K, x2 = 0.5	796.19	1.957
318.15 K, x2 = 0.6	787.68	1.959
318.15 K, x2 = 0.7	779.43	1.967
318.15 K, x2 = 0.7999	771.42	1.981
318.15 K, x2 = 0.9	763.64	2.003
323.15 K, x2 = 0	838.7	1.846
323.15 K, x2 = 0.1	828.91	1.832
323.15 K, x2 = 0.2	819.45	1.813
323.15 K, x2 = 0.3	810.22	1.801
323.15 K, x2 = 0.4	801.25	1.795
323.15 K, x2 = 0.5	792.52	1.793
323.15 K, x2 = 0.6	784.05	1.795
323.15 K, x2 = 0.7	775.84	1.8
323.15 K, x2 = 0.7999	767.88	1.813
323.15 K, x2 = 0.9	760.14	1.833

Source: the NIST ThermoML archive (doi:10.1016/j.jct.2016.01.021)
